Legend:
[1] = mouse models, high concentrations; cited from earlier work
Ras = Ras activation pull-down assay (Raf1 Ras binding domain) in MDA-MB-231 cells; format: cell-based, human; details: 0.5% serum
Experimental: In FIG. 14A, MDA-MB-231 cells were plated and then placed in media containing 0.5% media 24 hr later. 24 hr later, the cells were treated with either DMSO or honokiol (20 μM) as indicated for 2 hr. At this point the cells were harvested and lysates were prepared and treated with the immobilized Ras binding domain of Raf1 as in FIGS. 12A-C. Ras-GTP bound to the Raf1 binding domain was recovered and subjected to Western blot analysis using the Pan-Ras antibody. Total Ras in the cell lysates and actin levels were also examined by Western blot analysis. In FIG. 14B, MDA-MB-231 cells were plated and 24 hr later were shifted to media containing 0.5% serum. The cells were then treated with EGF (200 ng/ml) for 10 min. The cells were also treated with honokiol (20 μM) prior to the addition of EGF for the times indicated. The levels of GTP-bound Ras, total Ras, and actin were then determined as in FIG. 14A. […] Cells were then collected and Ras activation was determined using the pull-down assay as above. Levels of Ras-GTP, Sos, and Ras were determined by Western blot analysis using an antibody that recognized HA. […] Cells were then stimulated with 100 ng/ml EGF for the indicated times (min) and Ras activation was determined as in FIG. 14A. […] Cells were then stimulated with 100 ng/ml EGF for the indicated times (min) and Ras activation was determined as in FIG. 14A. […]

In the case of `C=CCc1ccc(O)c(-c2ccc(O)c(CC=C)c2)c1` [honokiol, Honokiol], the tolerability [1] is listed as “well tolerated”, the “Ras activation induced by EGF” value (Ras; honokiol 20 μM before EGF 200 ng/ml 10 min) is listed as “suppressed” and the “level of GTP-bound Ras” value (Ras; honokiol 20 μM, 2 hr, effect small, but reproducible) is listed as “suppressed”.
